Like-named read-outs stand apart in the source and are kept apart here.
Experiments:
[1] = tested on: hippocampal neurons from Fmr1 KO mice; assay: Dendritic spine development in hippocampal primary cultures; type: cell-based, mouse; conditions: FX hippocampal primary cultures, 20 μM, 17 hour treatment, 18 DIV
Experimental: The purpose of this study was to investigate the direct effects of tetracycline compounds, such as minocycline and Compound 1, on dendritic spine development in the cell derived from the mouse model of Fragile X Syndrome (FXS) and their wild-type litter mate control mouse embryos.
The compartmentalized cell culture was used in the experiments. Neuronal primary cultures of the hippocampus at embryonic day 16 (E16) were prepared from Fmr1 KO and WT litter mate control mouse embryos, and three independent cultures were used for the analysis. The in vitro system with […] was used to monitor dendritic spine morphogenesis during a time-course of culture, and immunostaining with synaptophysin was used to distinguish presynaptic boutons. The dendritic spines were usually formed between 7 and 14 days in vitro (DIV). By 14 DIV most dendiritic protrusions were spines; however, their maturation continued until 21 DIV. The effects of tetracycline compounds were evaluated at 18 DIV. Confocal Imagining analysis was performed at the University of Chile imaging center. Quantitative analysis of dentritic spine length, size distribution for dendritic spine heads and morphology of the hippocampal neurons from WT control and Fmr1 KO mice was performed after 17 hour treatment with 20 μM tetracycline compounds or with PBS control.

[2] = Alkylperoxy radical scavenging assay (AIPH, AE-Trolox oxidation)
Experimental: In a separate assay, alkylperoxy radicals were generated in vitro using the radical generator AIPH (2,2′-azobis-[2-(2-imidazolyn-2-yl)-propane) and the ability of tetracyclines to scavenge these radicals was determined. […] Also, the ability of Compound 1 and minocycline to specifically scavenge peroxynitrite-carbonate radicals was determined.
In this study, alkylperoxy radicals were generated in vitro using the radical generator AIPH (2,2′-azobis-[2-(2-imidazolyn-2-yl)-propane) and the ability of tetracyclines, such as Compound 1, to scavenge these radicals was determined.
Trolox is a known scavenger of peroxyradicals. Structurally similar to a-tocopherol, Trolox reacts with peroxyradicals via a known mechanism with linear kinetics under excess oxygen conditions. In the presence of a competing antioxidant compound, the rate of Trolox oxidation will change based on the relative rate of oxidation and concentration of the competing antioxidant compound (Huang, et al., J. Agric. Food Chem. 2005, 25, 1841-1856). By measuring the effect of antioxidant concentration on the rate of degradation of Trolox, the relative antioxidant capacity of a compound can be determined. This principle is the basis of the widely used antioxidant capacity assay, ORAC (Huang, et al., J. Agric. Food Chem. 2002, 50, 1815-1821). Unlike ORAC which uses a fluorescent dye indicator, the assay described here directly measures the oxidation of the Trolox derivative, 2-aminoethyl-Trolox (AE-Trolox). This method eliminates interference of the fluorescent dye reaction by tetracycline compounds.
To the first column of a 96-well PCR plate (0.2 mL volume) was added 160 μL of TCWS. One well of the first column would equal one IC50 determination. […] To the remaining wells in columns 2-11 was added 80 μL of AET-WS. Using a multichannel pipettor, column 1 was serially diluted in 2-fold dilutions by removing 80 μL from column 1 and transferring with mixing to column 2. Column 2 was then diluted to column 3 and so on until column 11 where 80 μL of the diluted mixture was removed and discarded. Four wells of row 12 were designated as the 0 test compound/0 AIPH control to which 80 μL of AET-WS was added. One well of row 12 per test compound was designated as the 0 test compound control to which 80 μL of the AET-WS was added.
The plate was covered and incubated for 5 minutes at 37° C. upon which the reaction was initiated by addition of 20 μL of AIPH to columns 1-11 using a multichannel pipettor with mixing. The reaction was initiated similarly to the 0 test compound wells of column 12. To the 0 test compound/0 AIPH control wells was added 20 μL of PB buffer. The plate was incubated at 37° C. for 8 minutes (the reaction is linear for 10 minutes) and quenched by addition of 50 μL of AA to all wells with mixing. The plate was placed on ice for 5 minutes. Quenched assay mixtures were stable at room temperature for at least 24 hours.
Each reaction mixture was analyzed for AE-Trolox by 2D-LCMS on a Shimadzu 2010 equipped with a loading column (Shim-pack MAYI-ODS, 4.6×10 mm) and a gradient column Phenomenex Luna C18(2) column, 3 um, 4.6×50 mm. Using an automated 2-position swithching valve, samples were loaded onto the loading column by Pump C and washed for 1 minute with loading buffer. At 1 minute, the valve was switched to elution position (Position B, reversed flow through loading column) and the samples were eluted through the gradient column. The loading buffer (Buffer C) was 10% acetonitrile in water with 0.2% formic acid and the gradient buffers were water+0.2% formic acid (A buffer) and acetonitrile+0.2% formic acid (B buffer). Typical injection volumes were 30 μL.
From the TIC integration of AE-Trolox and AE-Trolox-d4, a ratio was calculated:
Ratio=AUCAE-Trolox/AUCAE-Trolox-d4
Percent inhibition of AE-Trolox oxidation (measured as disappearance of AE-Trolox) was then determined by:
% Inhibition=[1−((Ratio0−Ratiox)/(Ratioo−Ratiof))]*100

[3] = Cardiovascular safety study in monkeys; type: in vivo
MBP-induced EAE = assay: MBP-induced Lewis rat EAE; type: in vivo; conditions: i.p. daily from day 9
Description: The inhibitory activity of Compound 1 was characterized in both mouse and rat models of EAE. Mice were immunized s.c. with myelin oligodendrocyte glycoprotein (MOG) peptide 35-55 in CFA and later injected i.v. with Pertussis toxin. Mice were randomized at day 10 and given compound i.p. Compounds were subsequently administered daily and the animals assessed for clinical score. Mice were scored as follows: 0=no disease; 1=limp tail; 2=paralysis of one or both hind limbs; 4=paralysis of both hind- and forelimbs. […] Rats were dosed daily i.p. with compound starting day 9. Rats were scored daily and cumulative scores were determined by adding the average daily scores over the experimental period. […] The average daily scores+/−SEM and the cumulative average scores are shown. Cumulative average scores were determined by adding the average daily scores over the experimental period.

[4] = Preliminary embryofetal DRF study in rats; type: in vivo; conditions: high dose of 250 mg/kg
[5] = tested on: focal cerebral ischemia (temporary MCA occlusion); assay: Rat stroke model, 90 min temporary MCA occlusion; type: in vivo, Male Wistar rats; conditions: for Neurological score / Infarct volume (Means ± SD): temporary; for Infarct volume (Means ± SD): 24 hr after MCAO; for Effect on infarct volume: temporary occlusion
MS = MS clinical studies, cited from earlier work
[6] = 20 mg/kg i.v. at 30 min, 6 hr after MCAO
[7] = 40 mg/kg i.v. at 60 min, 6 hr after MCAO
[8] = 40 mg/kg i.v. at 3 hr, 8 hr after MCAO

CCc1cc(N(C)C)c2c(c1O)C(=O)C1=C(O)[C@]3(O)C(=O)C(C(N)=O)=C(O)[C@@H](N(C)C)[C@@H]3C[C@@H]1C2 [Compound 1]
Spine number [1]: 0.28±0.05 | IC50 ([2]; 5 mM AIPH, 37° C., 8 minutes, read-out: IC50, inhibition of AE-Trolox oxidation (alkylperoxy radical scavenging)): 12.6 µM | Percent Trolox Activity ([2]; relative to Trolox): 71% | Trolox Equivalents ([2]; relative to Trolox): 0.71 | Cardiovascular safety findings [3]: No treatment-related effects were observed | Effect on clinical course of EAE (onset, maximum disease severity) (MBP-induced EAE): both delayed the onset and inhibited the maximum disease severity more potently than minocycline | Effects on fetal body weight [4]: only slight effects on fetal body weight | Neurological score [5, 6]: 1.5 ± 0.5 | Infarct volume (Means ± SD) [5, 6]: 139.2 ± 32.2 mm3 | Neurological score [5, 7]: 1.3 ± 0.5 | Infarct volume (Means ± SD) [5, 7]: 125.9 ± 49.9 mm3 | Neurological score [5, 8]: 1.4 ± 0.5 | Infarct volume (Means ± SD) [5, 8]: 172.8 ± 45.3 mm3 | Effect on infarct volume ([5]; treatment initiated three hours post occlusion): did not demonstrate an ability to reduce infarct volume | Effect on infarct volume ([5]; treatment started at 30 or 60 min after MCA occlusion): statistically significant reductions in infarct volume

CN(C)c1ccc(O)c2c1C[C@H]1C[C@H]3[C@H](N(C)C)C(O)=C(C(N)=O)C(=O)[C@@]3(O)C(O)=C1C2=O [Minocycline, minocycline, reference compound]
potential side effects (MS): Mild Nausea | potential side effects (MS; listed as minocycline): Mild nausea

— patent US20150174144A1, “TETRACYCLINE COMPOUNDS FOR TREATING NEURODEGENERATIVE DISORDERS” (PARATEK PHARMACEUTICALS, INC., priority 2012, published 2015)
